Reference: patent US20200270225A1, “Chiral Diacylhydrazine Ligands for Modulating the Expression of Exogenous Genes via an Ecdysone Receptor Complex” (Intrexon Corporation, priority 2007, published 2020)
Like-named read-outs stand apart in the source and are kept apart here.

Legend:
[1] = biological target: T1, [V390I/Y410E/E274V]-CfEcR (Choristoneura fumiferana, UniProt O77240); type: cell-based; conditions: 3T3 Cells; for RMFI (relative maximum fold induction): relative to GS-E ligand
T1 construct: assay construct b835
In short: (§1)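 NIH3T3 cells were transiently co-transfected with GAL4-DBD fused to CfEcR DEF domains (wild-type or V390I/Y410E/E274V), VP16-AD fused to chimeric human/Locusta RXR, and a GAL4-response luciferase reporter. Ligand was given at 8 doses, 0.01–33 µM, 0.33% DMSO, luciferase read at 48 h. EC50 came from fold induction over DMSO via three-parameter logistic fit; Relative Max FI was taken versus GS™-E ligand.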

[2] = biological target: wild-type Choristoneura fumiferana EcR (D, E and F domains) (Choristoneura fumiferana, UniProt O77240); type: cell-based; conditions: WT-CtEcR, 3T3 Cells; for RMFI (relative maximum fold induction): relative to GS-E ligand
In short: as §1

SMILES | melting point [°C] | EC50 ([1]; R) [nM] | RMFI (relative maximum fold induction) ([1]; R) | EC50 ([2]; R) [nM] | RMFI (relative maximum fold induction) ([2]; R) | also measured
CCC[C@@H](N(NC(=O)[C@@H](C)c1ccc2cc(OC)ccc2c1)C(=O)c1cc(C)cc(C)c1)C(C)(C)C [Example 30, (R)-3,5-Dimethyl-benzoic Acid N-(1-tert-butyl-butyl)-N′—(S)-[2-(6-methoxy-naphthalen-2-yl)-propionyl]-hydrazide] | 98 | – | – | – | – | –
CCC[C@@H](N(NC(=O)c1ccc(CC)cc1)C(=O)c1cc(C)cc(C)c1)C(C)(C)C [Example 12, (R)-3,5-Dimethyl-benzoic acid N-(1-tert-butyl-butyl)-N′-(4-ethyl-benzoyl)-hydrazide] | 111 to 112 | 0.56 | 0.82 | 23.6 | 0.78 | –
CCC[C@@H](N(NC(=O)c1ccccc1C)C(=O)c1cc(C)cc(C)c1)C(C)(C)C [Example 3, (R)-3,5-Dimethyl-benzoic acid N-(1-tert-butyl-butyl)-N′-(2-methyl-benzoyl)-hydrazide] | 137 to 138 | 1.1 | 0.69 | 90 | 0.75 | –
CCC[C@@H](N(NC(=O)c1ccc2c(c1C)OCCO2)C(=O)c1cc(C)cc(C)c1)C(C)(C)C [Example 21, (R)-3,5-Dimethyl-benzoic acid N-(1-tert-butyl-butyl)-N′-(5-methyl-2,3-dihydro-benzo[1,4]dioxine-6-carbonyl)-hydrazide] | 70 | ~0.04 | 1.14 | 0.304 | 0.87 | –
CCC[C@@H](N(NC(=O)c1ccccc1F)C(=O)c1cc(C)cc(C)c1)C(C)(C)C [Example 5, (R)-3,5-Dimethyl-bcnzoic acid N-(1-tert-butyl-butyl)-N′-(2-fluoro-benzoyl)-hydrazide] | 114 to 116 | ~0.8 | 1.16 | ~40 | 0.68 | –
CCC[C@@H](N(NC(=O)c1ccc(OC)c(OC)c1)C(=O)c1cc(C)cc(C)c1)C(C)(C)C [Example 17, (R)-3,5-Dimethyl-benzoic acid N-(1-tert-butyl-butyl)-N′-(3,4-dimethoxy-benzoyl)-hydrazide] | 121 to 123 | ~300 | 0.53 | ~4000 | 0.27 | –
CCC[C@@H](N(NC(=O)c1ccc(OC)cc1)C(=O)c1cc(C)cc(C)c1)C(C)(C)C [Example 13, (R)-3,5-Dimethyl-benzoic acid N-(1-tert-butyl-butyl)-N′-(4-methoxy-benzoyl)-hydrazide] | 65 to 67 | 1.4 | 0.68 | 42.3 | 0.73 | –
CCC[C@@H](N(NC(=O)c1ccc2c(c1CC)OCCO2)C(=O)c1cc(C)cc(C)c1)C(C)(C)C [Example 22, (R)-3,5-Dimethyl-benzoic acid N-(1-tert-butyl-butyl)-N′-(5-ethyl 2,3-dihydro-benzo[1,4]dioxine-6-carbonyl)-hydrazide] | 128 to 129 | 0.064 | 0.77 | 0.266 | 0.78 | –
C=CC[C@H](N(NC(=O)OCc1ccccc1)C(=O)c1cc(C)cc(C)c1)C(C)(C)C [Example 31.4, (S)—N′-(1-tert-butyl-but-3-enyl)-N′-(3,5-dimethyl-benzoyl)-hydrazine carboxylic acid benzyl ester] | 150 to 151.5 | – | – | – | – | EC50 ([1]; S): > 10000 nM; EC50 ([2]; S): > 10000 nM
CCC[C@@H](N(NC(=O)c1ccc2ccccc2c1)C(=O)c1cc(C)cc(C)c1)C(C)(C)C [Example 24, (R)-3,5-Dimethyl-benzoic acid N-(1-tert-butyl-butyl)-N′-(naphthalene-2-carbonyl)-hydrazide] | 91 | ~20 | 0.80 | ~200 | 0.46 | –
CCC[C@@H](N(NC(=O)c1ccc(Cl)cc1)C(=O)c1cc(C)cc(C)c1)C(C)(C)C [Example 14, (R)-3,5-Dimethyl-benzoic acid N-(1-tert-butyl-butyl)-N′-(4-chloro-benzoyl)-hydrazide] | 87 to 89 | 51 | 0.74 | 140 | 0.74 | –
CCC[C@@H](N(NC(=O)c1c(Cl)cccc1Cl)C(=O)c1cc(C)cc(C)c1)C(C)(C)C [Example 16] | 185 to 187 | 51.2 | 0.83 | ~300 | 0.53 | –
CCC[C@@H](N(NC(=O)c1cccc(C)c1)C(=O)c1cc(C)cc(C)c1)C(C)(C)C [Example 8, (R)-3,5-Dimethyl-benzoic acid N-(1-tert-butyl-butyl)-N′-(3-methyl-benzoyl)-hydrazide] | 158 to 159 | 1.2 | 0.92 | ~30 | 0.86 | –
CCC[C@@H](N(NC(=O)c1ccccc1Cl)C(=O)c1cc(C)cc(C)c1)C(C)(C)C [Example 6, (R)-3,5-Dimethyl-benzoic acid N-(1-tert-butyl-butyl)-N′-(2-chloro-benzoyl)-hydrazide] | 138 to 140 | 0.63 | 1.01 | ~20 | 0.88 | –
CCC[C@@H](N(NC(=O)c1ccccc1)C(=O)c1cc(C)cc(C)c1)C(C)(C)C [Example 2, (R)-3,5-Dimethyl-benzoic acid N′-benzoyl-N-(1-tert-butyl-butyl)-hydrazide] | 66 to 68 | 2.2 | 0.91 | ~30 | 0.74 | –
Cc1cc(C)cc(C(=O)N(NC(=O)OCc2ccccc2)[C@@H](CCCO)C(C)(C)C)c1 [Example 63, (S)—N′-(1-tert-Butyl-4-hydroxy-butyl)-N′-(3,5-dimethyl-benzoyl)-hydrazine Carboxylic Acid Benzyl Ester] | – | – | – | – | – | EC50 ([1]; S): > 10000 nM; EC50 ([2]; S): > 10000 nM
CCC[C@@H](N(NC(=O)c1cccc(OC)c1C)C(=O)c1cc(OC)c(C)c(OC)c1)C(C)(C)C [Example 51, (R)-3,5-Dimethoxy-4-methyl-benzoic acid N-(1-tert-butyl-butyl)-N′-(3-methoxy-2-methyl-benzoyl)-hydrazide] | – | 0.56 | 0.81 | ~70 | 1.00 | –
CCC[C@@H](C1CCCCC1)N(NC(=O)c1cccc(OC)c1CC)C(=O)c1cc(C)cc(C)c1 [Example 56, (S)-3,5-Dimethyl-benzoic acid N-(1-cyclohexyl-butyl)-N′-(2-ethyl-3-methoxy-benzoyl)-hydrazide] | – | – | – | – | – | EC50 ([1]; S): 107 nM; RMFI (relative maximum fold induction) ([1]; S): 0.52; EC50 ([2]; S): 159 nM; RMFI (relative maximum fold induction) ([2]; S): 0.37
CCCC(N(NC(=O)c1cccc(OC)c1)C(=O)c1cc(C)cc(C)c1)C(C)(C)C (racemic) [rac-9] | – | – | – | – | – | EC50 ([1]; rac, read-out: EC50): 7.1 nM; RMFI (relative maximum fold induction) ([1]; rac): 0.63; EC50 ([2]; rac, read-out: EC50): 304 nM; RMFI (relative maximum fold induction) ([2]; rac): 0.84
